Measurements from PubChem BioAssay AID1850 (Southern Research Specialized Biocontainment Screening …, 2009).
Where “and” joins values, the source holds several entries; their conditions need not be identical. Equal values may be shown once.

System: Salmonella Typhi PhoP-promoter GFP reporter, fluorescence, 4 h
Experiment: Inhibition of PhoP regulon, Salmonella typhi GFP reporter cells, confirmation, 4 h (AID 1850)

| Compound | IC50 |
| --- | --- |
| COc1cc2c3cc1Oc1cc(ccc1O)C[C@@H]1c4c(cc(OC)c(O)c4Oc4ccc(cc4)C[C@H]3N(C)CC2)CCN1C | 144 µM |
| Nc1nc(Nc2cccc(F)c2)nc2ccccc12 | 22.9 µM |
| COc1ccc(CNCC(O)COc2ccc(C(C)(C)c3ccccc3)cc2)cc1 (stereo not given) | 20.9 µM |
| Cc1nc2ccccn2c1C(=O)N/N=C/c1ccc([N+](=O)[O-])o1 | 44.5 µM |
| Cc1ccc(-c2csc(NC(=O)C[n+]3cc(-c4ccc(C)cc4)n4c3CCC4)n2)cc1 | 25 µM |
| CCOC(=O)N1CCN(Cc2cc(Cl)c3cccnc3c2O)CC1 | 61.7 µM |
| Fc1ccc([C@@H]2CCNC[C@H]2COc2ccc3c(c2)OCO3)cc1 | 42.9 µM |
| CC1CCc2cc(F)cc3c(=O)c(C(=O)O)cn1c23 (stereo not given) | 6.15 µM |
| O=C(N/N=C/c1ccc([N+](=O)[O-])o1)C(O)c1ccccc1 (stereo not given) | 35.2 µM |
| C/C(O)=C\c1nc2ccccc2oc1=O | 44.4 µM |
| CN1CCN(c2c(F)cc3c(=O)c(C(=O)O)cn4c3c2SCC4)CC1 | 2.46 µM and 3.26 µM |
| C=CCNc1ncnc2c1[nH]c1ccc(C)cc12 | 18.9 µM |
| Brc1ccc2c(c1)C(OC1CN3CCC1CC3)c1ccccc1CS2 (stereo not given) | 38.2 µM |
| NC1=C(Br)C(=O)c2ccccc2C1=O | 25.4 µM |
| Cc1ccc(-n2c(C)cc(C3N=C(N)Nc4nc5ccccc5n43)c2C)c(C)c1 (stereo not given) | 20.8 µM |
| Cn1c(SCC(=O)N/N=C/c2ccc([N+](=O)[O-])s2)nnc1-c1ccc(Cl)cc1 | 35.8 µM |
| CCCCCNC(=O)c1cn(CC)c2cc(N3CCN(C)CC3)c(F)cc2c1=O | 98 µM |
| CCOc1ccc(/C=N/NC(=O)c2[nH]ncc2Br)c(O)c1 | 138 µM |
| Cc1cc(C)c(OCCCCNCc2ccccc2)c(Cl)c1 | 74.6 µM |
| C[C@H]1c2cccc(O)c2C(O)=C2C(=O)C3(O)C(O)=C(C(N)=O)C(=O)[C@@H](N(C)C)[C@@H]3[C@@H](O)[C@@H]21 (stereo not given in full) | 2.01 µM |
| O=C(Nc1cccc(Br)c1)c1cc2ccccc2o1 | 25.4 µM |
| COc1ccc(Nc2nc(NCC3CCCO3)c3ccccc3n2)c(OC)c1 (stereo not given) | 37 µM |
| CCCCOc1ccc(C(=O)NNC(=S)NC(=O)CC)cc1 | 37.1 µM |

| Compound | IC50 |
| --- | --- |
| Cc1ccc(OCC(O)Cn2c(=N)n(CCN3CCCCC3)c3ccccc32)cc1 (stereo not given) | 112 µM |
| O=C(Nc1cccnc1)c1cc(Br)c(Br)s1 | 19.1 µM |
| CCC(O)(CC)C(=O)N/N=C/c1cc(Br)cc(Br)c1O | 77.9 µM |
| Nc1nnc(-c2cccc(Cl)c2Cl)c(N)n1 | 65.3 µM |
| Fc1ccc(Nc2nnc(C(F)(F)F)s2)cc1Cl | 36.8 µM |
| O=C(Nc1cccc(N=Cc2cc(Cl)cc(Br)c2O)c1)c1ccco1 | 96.9 µM |
| O=C(CCc1ccccc1)NNC(=O)c1ccccn1 | 74 µM |
| N/C(=N\OS(=O)(=O)c1ccc2ccccc2c1)c1cccnc1 | 20.7 µM |
| CN(C)CCCNC(=O)c1ccc(-c2nc(-c3ccc(Cl)cc3)cs2)cc1 | 20.8 µM |
| CC1CCC(C(C)C)C(OC(=O)C[n+]2cc(-c3ccc(Cl)cc3)n3c2CCC3)C1 (stereo not given) | 38 µM |
| NC(=O)SCC(=O)Nc1ccc(Cl)c(Cl)c1 | 13.7 µM |
| CN(C)c1ccc2nc3ccc(=[N+](C)C)cc-3sc2c1 | 18.2 µM |
| c1ccc(Nc2ccnc(Nc3ccccc3)n2)cc1 | 33.6 µM |
| COC(=O)C1=C(C)N(Cc2ccccc2)C(=NCc2cccc(C(F)(F)F)c2)N[C@H]1c1cccc(F)c1 | 33.3 µM |
| C/C(=N\NC(=O)c1ccc(Cl)cc1)c1ccccn1 | 33.4 µM |
| Cc1cc(N2CCC(C)CC2)nc2cccc(O)c12 | 77.1 µM |
| C[n+]1c2n(c3ccccc31)N=C(c1ccc(-c3ccccc3)cc1)CS2 | 24.8 µM |
| CCN1CCN(C(=O)c2cc3cc(Cl)ccc3[nH]2)CC1 | 89.5 µM |
| N/C(=N\N=C/c1ccc(F)cc1)N/N=C\c1ccc(F)cc1 | 37.8 µM |
| OCCCCNCc1ccc(OCc2ccc(Cl)cc2Cl)cc1 | 77.3 µM |
| Oc1c(C(Nc2ccccn2)c2cccnc2)cc(Cl)c2cccnc12 (stereo not given) | 36.5 µM |
| CCCCCCCNC(=O)C1(CC2CC(c3cccc(Br)c3)=NO2)CCNCC1 (stereo not given) | 53.7 µM |
| CN1CCC(OC(=O)c2ccc(Cl)cc2Cl)CC1 | 146 µM |

| Compound | IC50 |
| --- | --- |
| Oc1ccc(CN2CCCc3ccccc32)c2cccnc12 | 83 µM |
| C(=N\Nc1ccccn1)/c1cccnc1 | 33.9 µM |
| CN(C)C1C(=O)C(C(N)=O)=C(O)C2(O)C(=O)C3=C(O)c4c(O)cccc4C(C)(O)C3C(O)C12 (stereo not given) | 1.01 µM |
| CCCCc1ccc(N/C(N)=N/c2nc(C)cc(C)n2)cc1 | 77.8 µM |
| O=C(Nc1cccc([N+](=O)[O-])c1)Nc1cccs1 | 24.7 µM |
| CCCCCCCCCCCCCCCC[n+]1cccc(C(=O)N(CC)CC)c1 | 41.3 µM |
| OCCN1CCN(C2Cc3cc(Cl)ccc3Sc3ccc(Cl)cc32)CC1 (stereo not given) (tested in a mixture with another compound) | 34.6 µM |
| CC(C(=O)NC1C=CS(=O)(=O)C1)N1C(=O)/C(=C/c2cccc(Cl)c2)SC1=S (stereo not given) | 68.6 µM |
| NC1CCN(c2c(F)cc3c(=O)c(C(=O)O)cn(C4CC4)c3c2Cl)C1 (stereo not given) | < 0.23 µM |
| Cc1ccccc1C(=O)NNC(=S)NC(=O)COc1ccccc1 | 132 µM |
| Clc1ccc(-c2cc(C3CCNCC3)[nH]n2)c(Cl)c1 | 55 µM |
| Cc1cc(N2CCC(C)CC2)nc(NCc2ccccc2)n1 | 40.2 µM |
| CSc1ccc2c(c1)C(N1CCN(C)CC1)Cc1ccccc1S2 (stereo not given) | 39.7 µM |
| OCCN1CCN(CCCN2c3ccccc3Sc3ccc(Cl)cc32)CC1 | 69.2 µM |
| O=C(C[n+]1cccc(CNC(=O)c2ccc(OC(F)F)cc2)c1)Nc1ccc(SC(F)F)cc1 | 83.2 µM |
| O=C(OCC(=O)N1CCOCC1)c1ccc[nH]c1=O | 36.6 µM |
| CCc1ccc(NC(=O)C[n+]2cc(-c3ccc(C)cc3)n3c2CCC3)cc1 | 39.8 µM |
| CCC(C)N1CCC2(CC1)N=c1c(c3c4c5c(C)c(O)c3c(O)c1=NC(=O)C(C)=CC=C[C@H](C)[C@H](O)[C@@H](C)[C@@H](O)[C@@H](C)[C@H](OC(C)=O)[C@H](C)[C@@H](OC)C=CO[C@@](C)(O5)C4=O)N2 (stereo not given in full) | 2.54 µM |
| O=c1[nH]cc(F)c(=O)[nH]1 | 2.99 µM |
| CCn1cc(C(=O)O)c(=O)c2cc(F)c(N3CCN(C)CC3)cc21 | 0.43 µM |
| CC(C)(C)c1ccc(OCCCCCCN2CCNCC2)cc1 | 69.2 µM |
| O=C(N/N=C/c1cc([N+](=O)[O-])ccc1O)C1CC1 | 29.5 µM |
| O=C(CNCCC1=CCCCC1)Nc1ccc(N2CCCCCC2)cc1 | 29.6 µM |

| Compound | IC50 |
| --- | --- |
| Cc1ncc(CC(=O)n2cc(C(=O)c3cc(Cl)ccc3O)cn2)s1 | 83 µM |
| Oc1cc(Cl)ccc1Oc1ccc(Cl)cc1Cl | 0.67 µM |
| N=c1n(CCN2CCCCC2)c2ccccc2n1CC(=O)c1ccc(Cl)c(Cl)c1 | 34.9 µM |
| Clc1c(OCCCn2ccnc2)ccc2ccccc12 | 39.7 µM |
| COc1ccc(NC(=O)c2cc(Br)c(Br)s2)cn1 | 10.3 µM |
| O=C(/C=C/c1ccccc1)c1cc(Br)ccc(=O)c1O | 24.5 µM |
| O=C(CCC(=O)Nc1ccc(Cl)cc1Cl)N/N=C/c1ccc([N+](=O)[O-])o1 | 23.5 µM |
| O/N=C/C1=C(Cl)c2ccccc2CC1 | 125 µM |
| COc1cc([N+](=O)[O-])cc(/C=N/NC(=O)C(O)(c2ccccc2)c2ccccc2)c1O | 107 µM |
| O=C(N/N=C/c1ccc([N+](=O)[O-])o1)C1CCCC1 | 35.5 µM |
| COc1ccc(OCC(O)CNc2ccc(Br)cc2)cc1 (stereo not given) | 5.72 µM |
| Nc1nc(F)nc2c1ncn2[C@@H]1O[C@H](CO)[C@@H](O)[C@H]1O | 32.9 µM |
| CCCCCC(=O)NNC(=S)NC(C)=O | 32.9 µM |
| CCCCCCCCCCCCOC(=O)C[N+](C)(C)C | 29.9 µM |
| Cn1c(-c2ccc3c(c2)OCO3)cnc1NCc1ccc(Cl)cc1 | 81.8 µM |
| [O-][n+]1c2c(c3c4non(O)c4ccc31)CCCC2 | 74.7 µM |
| CC(C)CCC(CCNCc1ccccn1)c1ccc(Cl)cc1 (stereo not given) | 65.4 µM |
| CC1CCC(C(C)C)C(OC(=O)Cn2c(COc3ccccc3)[n+](C)c3ccccc32)C1 (stereo not given) | 35.1 µM |
| Oc1ccc(C[C@@H]2CNCCN2CCC23CC4CC(CC(C4)C2)C3)cc1 | 71.5 µM |
| O=C(N/N=C\c1ccc(Cl)s1)c1cccs1 | 78.5 µM |
| Cc1ccc(NC(=O)COc2ccccc2CNC(C)(C)CC(C)(C)C)cc1 | 91.6 µM |
| CCCCCOc1ccc(C)cc1CN(CCCl)CCCl | 30.4 µM |
| Oc1c(Br)cc(Br)cc1C=NCc1ccc(F)cc1 | 57.4 µM |

| Compound | IC50 |
| --- | --- |
| CSc1ccc2c(c1)C(N1CCN(C)CC1)Cc1ccc(F)cc1S2 (stereo not given) | 36.8 µM |
| CCOC(=O)N1CCN(C(=O)c2cn(CC)c3cc(N4CCN(C)CC4)c(F)cc3c2=O)CC1 | 3.42 µM |
| Cc1c(CN(C)C)c2c(n1Cc1ccccc1)C(=O)c1ccc(Br)cc1-2 | 76.5 µM |
| OC(CNCCc1ccc(Cl)cc1Cl)COc1ccccc1 (stereo not given) | 71 µM |
| Cc1ccc(S(=O)(=O)CCC(=O)c2ccc(O)cc2O)cc1 | 75.7 µM |
| Cc1ccc(NC(=O)c2ccc([N+](=O)[O-])o2)c(C)c1 | 76.6 µM |
| Oc1ccc(C2NCc3ccccc3-n3cccc32)cc1Cl (stereo not given) | 150 µM |
| Cc1ccc2sc(N(CCCN(C)C)C(=O)c3ccc(Br)s3)nc2c1C | 36.8 µM |
| C#CCOCCOCCOCCNc1nc(N2CCN(C(=O)CCCCCCCCCCNC(=O)[C@H](CCCCN)n3cc(CCO)nn3)CC2)nc(N2CCN(C(=O)CCCCCCCCCCNC(=O)[C@H](CCCCN)n3cc(CCO)nn3)CC2)n1 | 60.3 µM |
| OC1(c2ccc(Cl)cc2)CCN(Cc2c[nH]c3ccccc23)CC1 | 69.5 µM |
| Clc1ccc(OCCCNCc2ccccc2)c(Br)c1 | 37.6 µM |
| CCS(=O)(=O)c1ccc2oc(=O)c(/C=C(\O)c3ccc(Cl)cc3)nc2c1 | 76.1 µM |
| CN1CCN(/N=C/c2c3ccccc3c(Cl)c3ccccc23)CC1 | 74.6 µM |
| N=c1c2c(n(Cc3ccc(Cl)cc3Cl)c3c1CCC3)CCCC2 | 42.3 µM |
| CCCCCCOC(=O)C[N+](C)(C)CCOC1CC2CCC1(C)C2(C)C (stereo not given) | 36.5 µM |
| CCCCCOc1ccc(CSC2=NCCN2)cc1[N+](=O)[O-] | 36.8 µM |
| CC(=O)NC(c1ccc(Cl)cc1Cl)c1ccc2cccnc2c1O (stereo not given) | 95.5 µM |
| c1ccc(Sc2cccc3ccccc23)c(CNC2=NCCN2)c1 | 68.3 µM |
| CCn1cc(C(=O)O)c(=O)c2cc(F)c(N3CCN(C(=S)Nc4ccc(OC)cc4)CC3)cc21 | 5.79 µM |
| CC1CC(=O)c2c(cc3c(-c4c(O)cc(O)c5c(O)c6c(cc45)OC(C)CC6=O)c(O)cc(O)c3c2O)O1 (stereo not given) | 27.3 µM |
| O=c1c2ccccc2[nH]c2ccc(F)cc12 | 75.7 µM |
| Oc1c(CN2CCN(c3ccccn3)CC2)cc(Cl)c2cccnc12 | 29.6 µM |
| Cc1ccc(Nc2cc(C)nn2-c2nc(C)cc(=O)[nH]2)cc1 | 11.9 µM |
